Experimental data from PubChem BioAssay (NCI).
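Step 1: Grow cells in 96-well plates. Step 2: Expose to compound for 48 hours at 5 concentrations. Step 3: Interpolate endpoints linearly; if unreached, use highest concentration. Abbreviation: GI50, concentration required for 50% inhibition of growth. The concentration for full growth arrest is given as TGI.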 Where a SMILES comes first, the peptide text is derived from it. [ ]: non-standard residue; d: D form. pGlu = O=C1CC[CH](C(=O)O)N1

What was measured:
Assay in all cases: growth of human tumour cells (NCI), 48 h
IGROV1 ovarian = tested on: IGROV1 ovarian
SK-OV-3 ovarian = tested on: SK-OV-3 ovarian
U251 CNS = tested on: U251 CNS
SF-295 CNS = tested on: SF-295 CNS
DU-145 prostate = tested on: DU-145 prostate
T-47D breast = tested on: T-47D breast
MDA-MB-435 = tested on: MDA-MB-435
K-562 leukemia = tested on: K-562 leukemia
NCI/ADR-RES ovarian = tested on: NCI/ADR-RES ovarian
MCF7 breast = tested on: MCF7 breast

Compound | GI50 (IGROV1 ovarian) [µM] | TGI (IGROV1 ovarian) [µM] | TGI (SK-OV-3 ovarian) [µM] | TGI (U251 CNS) [µM] | TGI (SF-295 CNS) [µM] | TGI (DU-145 prostate) [µM] | TGI (T-47D breast) [µM] | TGI (MDA-MB-435) [µM] | TGI (K-562 leukemia) [µM] | TGI (NCI/ADR-RES ovarian) [µM] | TGI (MCF7 breast) [µM]
C/C(=N\NC(=O)c1cccnc1)c1cccc(/C(C)=N/NC(=O)c2cccnc2)n1.CC(=O)[O-].CC(=O)[O-].[Zn+2] | 10.1 | > 43.4 | > 100 | > 100 | > 30.2 | – | – | – | – | – | –
COc1ccc(-c2nnc(-c3ccncc3)o2)cc1 | – | > 100 | > 100 | > 100 | > 100 | > 100 | > 100 | > 100 | > 100 | > 100 | > 100
NC(=O)CCC(NC(=O)c1cccc2c(=O)c3ccccc3[nH]c12)C(=O)O (stereo not drawn) | – | > 100 | > 100 | > 100 | > 100 | > 100 | – | > 100 | > 100 | > 100 | > 100
CC(NC(=O)C(Cc1cnc[nH]1)NC(=O)C1CCC(=O)N1)C(N)=O (stereo not drawn) ([pGlu]-His-Ala-NH2; configuration not given here) | – | > 100 | > 100 | > 100 | > 100 | > 100 | > 100 | > 100 | > 100 | – | > 100
COc1ccc(N=N/C(=N/NC(=O)c2cc(Cl)ccc2C(=O)c2ccccc2)c2ccc(N(CCC#N)CCC#N)cc2C)cc1 | – | 27.7 | > 100 | > 100 | > 100 | > 100 | 47.4 | > 100 | > 100 | 59.1 | > 100
COc1cc2c(cc1OC(=O)c1cc3ccccc3[nH]1)N=C[C@@H]1CCCN1C2=O | – | > 39.6 | 15.2 | 3.52 | 4.48 | 11.7 | 6.25 | 1.19 | 2.83 | > 100 | 13
CC(C)(C)c1cc(/C=C/C(=O)CC(=O)/C=C/c2cc(C(C)(C)C)c(O)c(C(C)(C)C)c2)cc(C(C)(C)C)c1O | – | > 50 | > 50 | > 50 | > 50 | > 50 | – | > 50 | – | > 50 | > 50
CC1CC(=O)Nc2ccc(N=NN(C)C)cc2N1C=O (stereo not drawn) | – | > 100 | > 100 | > 100 | > 100 | > 100 | > 100 | > 100 | > 100 | > 100 | > 100
O=C1OC(c2ccc(Cl)cc2)(c2ccc(Cl)cc2)c2c1ccc1ccccc21 | – | > 100 | > 100 | > 100 | > 100 | – | – | – | > 100 | – | –
COc1cccc2c1-c1c(OC)cccc1SS2 | – | 41.6 | – | 46.8 | 43.6 | > 100 | – | 15.1 | > 100 | > 100 | > 100
CCC/C(Cl)=N\OC(=O)Nc1ccc(F)c([N+](=O)[O-])c1 | – | 28.7 | 78.9 | 37.3 | > 100 | 28.6 | – | 30.4 | > 100 | 36.6 | 75.5
